Patent US20230265098A1, “ALKYNE QUINAZOLINE DERIVATIVES AS INHIBITORS OF ERBB2” (EnLiven Therapeutics, Inc., priority 2020, published 2023)
Structures can show the parent of a compound that is named as a salt.

Experiments:
[1] = target: T1, phosphorylated ERBB2 (pERBB2) (Homo sapiens, UniProt P04626); test: Detection of phosphorylated ERBB2 (pERBB2) by ELISA in BT-474 cells; assay type: cell-based; settings: four hours incubation with compound, OD 450 nm
T1 construct: endogenous in cells; host or cells: BT-474
T1 sequence (P04626 23-1255): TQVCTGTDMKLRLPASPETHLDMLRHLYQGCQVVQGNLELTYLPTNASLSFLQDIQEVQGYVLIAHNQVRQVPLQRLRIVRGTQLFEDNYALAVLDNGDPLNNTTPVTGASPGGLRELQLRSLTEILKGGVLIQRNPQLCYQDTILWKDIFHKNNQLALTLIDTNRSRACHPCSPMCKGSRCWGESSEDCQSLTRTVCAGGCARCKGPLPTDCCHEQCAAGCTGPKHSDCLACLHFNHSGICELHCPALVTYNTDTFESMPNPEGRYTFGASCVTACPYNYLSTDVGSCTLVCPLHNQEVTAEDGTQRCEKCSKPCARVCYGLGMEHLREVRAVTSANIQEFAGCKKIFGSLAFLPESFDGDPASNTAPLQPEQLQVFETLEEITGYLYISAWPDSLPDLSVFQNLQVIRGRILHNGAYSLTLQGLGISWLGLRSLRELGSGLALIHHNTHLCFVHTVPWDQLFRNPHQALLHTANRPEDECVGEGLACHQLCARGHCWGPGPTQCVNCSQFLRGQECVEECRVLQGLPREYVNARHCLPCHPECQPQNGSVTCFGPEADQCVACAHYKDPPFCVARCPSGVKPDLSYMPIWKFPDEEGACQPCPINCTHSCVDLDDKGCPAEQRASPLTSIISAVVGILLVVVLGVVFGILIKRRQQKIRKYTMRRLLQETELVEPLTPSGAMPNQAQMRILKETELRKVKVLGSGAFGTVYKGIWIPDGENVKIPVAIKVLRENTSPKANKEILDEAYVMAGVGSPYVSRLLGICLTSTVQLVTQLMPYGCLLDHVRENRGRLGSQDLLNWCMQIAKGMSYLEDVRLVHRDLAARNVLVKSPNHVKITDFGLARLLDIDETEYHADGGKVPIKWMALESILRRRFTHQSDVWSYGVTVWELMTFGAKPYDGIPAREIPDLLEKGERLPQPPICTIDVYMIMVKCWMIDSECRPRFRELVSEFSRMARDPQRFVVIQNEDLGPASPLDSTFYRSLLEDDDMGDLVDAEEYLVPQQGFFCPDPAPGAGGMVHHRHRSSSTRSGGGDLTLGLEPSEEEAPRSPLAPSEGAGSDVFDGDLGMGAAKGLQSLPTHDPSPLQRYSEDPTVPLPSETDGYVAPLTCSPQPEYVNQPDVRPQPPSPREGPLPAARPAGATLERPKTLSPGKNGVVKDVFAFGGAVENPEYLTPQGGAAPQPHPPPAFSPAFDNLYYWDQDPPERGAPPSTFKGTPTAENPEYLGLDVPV
Protocol: BT-474 cells were seeded into a 96-well at 2.0*10^4 cells/100 μl/well.
Compounds were dissolved and serially diluted in DMSO. The compounds were then were added, mixed, and incubated for four hours at 37° C., 5% CO2. Compounds were added using four-fold dilutions at final concentrations ranging from 10 μM to 0.01 nM.
Following the four hour incubation with compounds, cell lysates were prepared. Plates were centrifuged for 5 min at 3000 RPM, and supernatant was removed from each well. Cells were washed 3 times by resuspension in 150 μl PBS, followed by centrifugation and removal of the supernatant, as above. […] Cells were incubated with lysis buffer for 1 hour at 4° C., and then stored at −80° C.
Enzyme-linked immunosorbent assays (ELISA) were performed to measure phosphorylated ERBB2 levels. […] The next day, plates were washed with PBS+0.05% Tween20 (PBST). 150 μl of 5% BSA blocking solution was added for 1 hour at room temperature, with shaking. Plates were washed with PBST. Cell lysates were thawed and 100 μl of lysate was added to the ELISA plate. The plates were incubated for 2 hours at room temperature, with shaking. […] Plates were incubated for 1 hour at room temperature, with shaking. Plates were then washed with PBST, and 100 μl TMB substrate solution (R&D Systems, cat #DY999) was added. Plate were incubated in the dark for 20 minutes at room temperature. 50 μl of Stop solution (R&D Systems, cat #DY994) (50 μl) was added to each well and mixed.
Optical density at 450 nm was read on an EnSpire plate reader (Perkin Elmer). The remaining kinase activity by calculated using the following formula: % Relative activity=100×(A450sample−A450LC)/(A450HC−A450LC). The low and high control values (“LC” and “HC”) were generated from lysate from wells without cells or with cells treated with 0.1% DMSO, respectively.

[2] = target: T2, Ba/F3 ERBB2 A775_G776insYVMA (Homo sapiens, UniProt P04626, DUP772-775, cells depend on it); test: Cell viability assay (CellTiter Glo); assay type: cell-based, mouse; settings: 72 hours; 300 cells per well, 384-well plates (Table B5); read-out: Cell Line: Ba/F3 ERBB2 A775 G776ins YVMA IC50
T2 construct: Ba/F3 cell lines were engineered to express human ERBB2 or EGFR kinases, rendering the cells IL-3 independent
T2 sequence (P04626 with tags, fused parts or gaps DUP772-775): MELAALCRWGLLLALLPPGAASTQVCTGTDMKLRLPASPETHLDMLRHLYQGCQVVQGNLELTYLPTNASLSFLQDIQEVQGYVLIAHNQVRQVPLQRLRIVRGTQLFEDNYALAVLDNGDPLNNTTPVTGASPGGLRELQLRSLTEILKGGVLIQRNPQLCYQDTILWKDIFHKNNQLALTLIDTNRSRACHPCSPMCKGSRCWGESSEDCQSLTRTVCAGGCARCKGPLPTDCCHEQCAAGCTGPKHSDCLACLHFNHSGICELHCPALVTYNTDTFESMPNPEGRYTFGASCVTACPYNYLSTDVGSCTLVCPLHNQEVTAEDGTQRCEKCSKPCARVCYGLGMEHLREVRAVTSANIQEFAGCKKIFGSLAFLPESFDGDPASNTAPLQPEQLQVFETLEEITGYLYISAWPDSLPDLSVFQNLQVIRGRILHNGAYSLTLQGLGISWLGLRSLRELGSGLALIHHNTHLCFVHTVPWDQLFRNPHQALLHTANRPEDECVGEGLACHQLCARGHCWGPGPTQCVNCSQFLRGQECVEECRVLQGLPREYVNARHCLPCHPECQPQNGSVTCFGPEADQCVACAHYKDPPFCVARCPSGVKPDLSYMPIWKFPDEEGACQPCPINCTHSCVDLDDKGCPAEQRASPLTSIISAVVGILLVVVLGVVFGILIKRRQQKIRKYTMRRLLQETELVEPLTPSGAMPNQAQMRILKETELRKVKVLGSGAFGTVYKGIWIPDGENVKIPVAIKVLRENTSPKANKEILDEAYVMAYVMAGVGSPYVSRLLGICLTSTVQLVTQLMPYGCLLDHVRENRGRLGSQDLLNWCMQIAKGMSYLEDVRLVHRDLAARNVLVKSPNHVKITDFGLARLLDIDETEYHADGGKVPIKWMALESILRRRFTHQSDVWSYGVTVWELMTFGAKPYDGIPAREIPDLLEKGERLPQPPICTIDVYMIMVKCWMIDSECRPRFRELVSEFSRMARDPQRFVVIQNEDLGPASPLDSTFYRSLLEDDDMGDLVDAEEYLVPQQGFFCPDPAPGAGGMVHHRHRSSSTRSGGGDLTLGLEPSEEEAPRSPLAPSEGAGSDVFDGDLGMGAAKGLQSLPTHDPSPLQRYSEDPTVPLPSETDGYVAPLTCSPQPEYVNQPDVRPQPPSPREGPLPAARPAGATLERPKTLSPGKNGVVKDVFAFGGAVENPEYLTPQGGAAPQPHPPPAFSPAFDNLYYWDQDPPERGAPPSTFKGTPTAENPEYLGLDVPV
Protocol: Cells were treated with compounds, and cell viability was measured as a metric of kinase inhibition.
The Ba/F3 cell line is IL-3-dependent mouse cell line derived from the C3H mouse strain. Ba/F3 cell lines were engineered to express human ERBB2 or EGFR kinases, rendering the cells IL-3 independent. The lines were generated via retroviral transduction utilizing a Moloney murine leukemia virus (MMLV) promoter, and constructs are stably integrated into the cell genome.
Similarly, Ba/F3 cell lines engineered to express EGFR, ERBB2, or ERBB2 mutants were grown, harvested, counted and seeded at 3000 cells per well in 96-well plates for the data sets shown in Tables B3-B4, and seeded at 300 cells per well in 384-well plates for the data set shown in Table B5. A subset of wells contained media only (low control, “LC”).
Table B2 provides the growth media and number of cells seeded per well for the each cell line.
Compounds were dissolved in DMSO and serially diluted. Serially-diluted compound or a DMSO only control (high control, “HC”) was added to the plated cells in each well. […] The final proportion of DMSO never exceeded 0.1%.
Plates were placed in a 37° C., 5% CO2 incubator for 72 hours. Plates were then removed from the incubator and equilibrated for 15 minutes at room temperature. 40 IA of CellTiter Glo reagent (Promega) was added to measure the relative level of metabolically active cells by quantifying intracellular ATP concentrations. Plates were incubated for 30 minutes at room temperature, and luminescence was measured. Percent viability was normalized to a vehicle control only using the following formula: % viability=100×(LumSample−LumLC) (LumHC−LumLC). Graphical curves were fitted using a nonlinear regression model with a sigmoidal dose response.

[3] = target: T3, phosphorylated EGFR (pEGFR) (Homo sapiens, UniProt P00533); test: Detection of phosphorylated EGFR (pEGFR) in EGF-stimulated A431 cells (AlphaLISA); assay type: cell-based; settings: A431 cells (10% FBS), 4 hours with compound, then EGF 30 ng/mL for 10 minutes
T3 construct: endogenous in cells; host or cells: A431
T3 sequence (P00533 25-1210): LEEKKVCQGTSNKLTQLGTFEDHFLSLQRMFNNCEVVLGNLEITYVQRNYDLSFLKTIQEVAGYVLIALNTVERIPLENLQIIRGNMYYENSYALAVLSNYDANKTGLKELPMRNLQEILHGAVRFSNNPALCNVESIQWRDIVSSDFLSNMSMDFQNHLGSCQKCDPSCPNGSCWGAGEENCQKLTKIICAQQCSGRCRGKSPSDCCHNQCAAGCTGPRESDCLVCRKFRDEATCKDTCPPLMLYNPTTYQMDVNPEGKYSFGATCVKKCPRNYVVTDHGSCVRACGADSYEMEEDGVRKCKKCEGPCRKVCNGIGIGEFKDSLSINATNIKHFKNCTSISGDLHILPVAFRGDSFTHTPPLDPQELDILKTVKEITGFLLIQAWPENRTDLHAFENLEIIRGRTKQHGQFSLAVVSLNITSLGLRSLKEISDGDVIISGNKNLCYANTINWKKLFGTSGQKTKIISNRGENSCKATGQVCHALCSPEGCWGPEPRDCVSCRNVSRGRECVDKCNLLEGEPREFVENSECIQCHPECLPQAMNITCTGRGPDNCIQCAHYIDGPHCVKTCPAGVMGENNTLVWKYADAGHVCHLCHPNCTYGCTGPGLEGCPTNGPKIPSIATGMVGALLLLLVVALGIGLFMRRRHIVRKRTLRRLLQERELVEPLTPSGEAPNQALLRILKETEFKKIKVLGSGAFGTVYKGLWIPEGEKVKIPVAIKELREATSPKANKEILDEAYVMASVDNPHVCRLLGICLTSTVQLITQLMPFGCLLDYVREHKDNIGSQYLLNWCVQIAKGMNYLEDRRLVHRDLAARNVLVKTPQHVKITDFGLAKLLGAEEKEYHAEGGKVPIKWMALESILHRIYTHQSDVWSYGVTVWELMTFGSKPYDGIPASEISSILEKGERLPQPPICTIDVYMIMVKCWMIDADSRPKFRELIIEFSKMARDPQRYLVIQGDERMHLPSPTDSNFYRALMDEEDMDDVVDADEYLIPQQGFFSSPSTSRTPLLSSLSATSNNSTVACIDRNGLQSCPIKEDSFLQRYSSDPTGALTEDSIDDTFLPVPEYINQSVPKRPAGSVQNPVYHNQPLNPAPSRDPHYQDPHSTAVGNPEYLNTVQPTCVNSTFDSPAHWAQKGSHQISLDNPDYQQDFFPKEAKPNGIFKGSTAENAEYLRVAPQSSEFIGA
Protocol: Enzyme-linked immunosorbent assays (ELISA) were performed to measure phosphorylated EGFR levels using A431 cells (10% FBS). A431 (1.0*10^4 cells/40 μl/well) cells were seeded in 384 well. Compounds were dissolved in DMSO, serially diluted in DMSO and then were added, mixed, and incubated for 4 hours at 37° C., 5% CO2. Following the 4-hours incubation, cells were stimulated for 10 minutes with EGF (Invitrogen, cat #PHG0311) at a final concentration of 30 ng/mL in the incubator. The media was aspirated and cells were lysed in 10 μL lysis buffer with protease and phosphatase inhibitors (PerkinElmer, cat #ALSU-PEGFR-A50K). The plates were placed on a shaker for 5 minutes and then incubated for 30 min at 4° C. for complete lysis. The lysate was transferred to an Optiplate (Perkin Elmer, cat #6007290).
Acceptor mix (PerkinElmer, cat #ALSU-PEGFR-A50K) was prepared just before use and 5 μL was dispensed to all the wells, followed by a 1.5-2 h incubation at room temperature in dark. The donor mix (PerkinElmer, cat #ALSU-PEGFR-A50K) was prepared under low light conditions prior to use and […] of donor mix was added to all the wells under subdued lighting or green filters. The plates were placed on a shaker for 5 min, sealed, and incubated overnight at room temperature in dark. Plates were read on the Envision (PerkinElmer) using standard AlphaLISA settings.
The percentage of inhibition on EGFR phosphorylation was calculated following equation: % Inhibition=100×(LumHC−LumSample)/(LumHC−LumLC). The low and high controls (LC/HC) are generated from lysate from wells with cells treated with DMSO or […] Staurosporine (BioAustralis, cat #BIA-S1086), […]. IC50 values were calculated by fitting the Curve using XLfit (v5.3.1.3), equation 201: Y=Bottom+(Top−Bottom)/(1+10^((LogIC50−X)*HillSlope)).

Row | Structure (SMILES) | IC50 [1] [nM] | IC50 [3] [nM] | GI50 [2] [nM]
1 | CC#CC(=O)Nc1cc2c(Nc3cc(Cl)c(Oc4ccn5ncnc5c4)cc3F)ncnc2cc1OCCN(C)C [Compound 197, N-(4-((4-([1,2,4]triazolo[1,5-a]pyridin-7-yloxy)-5-chloro-2-fluorophenyl)amino)-7-(2-(dimethylamino)ethoxy)quinazolin-6-yl)but-2-ynamide] | 11.4 | 555 | –
2 | CC#CC(=O)Nc1ccc2ncnc(Nc3ccc(Oc4ccc5c(c4)ncn5C)c(C)c3)c2c1 [Compound 212, N-[4-({3-methyl-4-[(1-methyl-1,3-benzodiazol-5-yl)oxy]phenyl}amino)quinazolin-6-yl]but-2-ynamide] | 52.3 | 377 | 9.41
3 | CC#CC(=O)Nc1cc2c(Nc3ccc(Cc4ccn5ncnc5c4)c(F)c3)ncnc2cc1OCCN(C)C [Compound 202, N-{7-[2-(dimethylamino)ethoxy]-4-[(3-fluoro-4-{[1,2,4]triazolo[1,5-a]pyridin-7-ylmethyl}phenyl)amino]quinazolin-6-yl}but-2-ynamide] | 21.8 | 543 | 49.4
4 | CC#CC(=O)Nc1cc2c(Nc3ccc(Oc4ccn5ncnc5c4)c(C)c3)ncnc2cc1OCCN1CCN(C)CC1 [Compound 203, N-{4-[(3-methyl-4-{[1,2,4]triazolo[1,5-a]pyridin-7-yloxy}phenyl)amino]-7-[2-(4-methylpiperazin-1-yl)ethoxy]quinazolin-6-yl}but-2-ynamide] | 6.05 | 45.5 | 5.11
5 | CC#CC(=O)Nc1cc2c(Nc3ccc(Cc4ccn5ncnc5c4)c(C)c3)ncnc2cc1OCCCN(C)C [Compound 189, N-{7-[3-(dimethylamino)propoxy]-4-[(3-methyl-4-{[1,2,4]triazolo[1,5-a]pyridin-7-ylmethyl}phenyl)amino]quinazolin-6-yl}but-2-ynamide] | 1.87 | 106 | 2.47
6 | CC#CC(=O)Nc1cc2c(Nc3ccc(Oc4cnn(C)c(=O)c4)c(C)c3)ncnc2cc1OCCN(C)C [Compound 201, N-{7-[2-(dimethylamino)ethoxy]-4-({3-methyl-4-[(1-methyl-6-oxopyridazin-4-yl)oxy]phenyl}amino)quinazolin-6-yl}but-2-ynamide] | 153 | 1970 | 346
7 | CC#CC(=O)Nc1cc2c(Nc3cc(C)c(Oc4ccn5ncnc5c4)cc3F)ncnc2cc1OCCN(C)C [Compound 182, N-{7-[2-(dimethylamino)ethoxy]-4-[(2-fluoro-5-methyl-4-{[1,2,4]triazolo[1,5-a]pyridin-7-yloxy}phenyl)amino]quinazolin-6-yl}but-2-ynamide] | 13.2 | 1490 | –
8 | Cc1cc(Nc2ncnc3cc(OCCN(C)C)c(NC(=O)C#CC4CC4)cc23)ccc1Oc1ccn2ncnc2c1 [Compound 170, 3-cyclopropyl-N-{7-[2-(dimethylamino)ethoxy]-4-[(3-methyl-4-{[1,2,4]triazolo[1,5-a]pyridin-7-yloxy}phenyl)amino]quinazolin-6-yl}prop-2-ynamide hydrochloride] | 14 | 418 | –
9 | Cc1cc(Nc2ncnc3cc(OCCN(C)C)c(NC(=O)C#CC4CC4)cc23)c(F)cc1Oc1ccn2ncnc2c1 [Compound 181, N-(4-(4-([1,2,4]triazolo[1,5-a]pyridin-7-yloxy)-2-fluoro-5-methylphenylamino)-7-(2-(dimethylamino)ethoxy)quinazolin-6-yl)-3-cyclopropylpropiolamide formate] | 22.8 | 971 | –
10 | Cc1cc(Nc2ncnc3ccc(NC(=O)C#CC4CC4)cc23)ccc1Oc1ccc([C@@H](F)CF)nc1 [Compound 188, (R)-3-cyclopropyl-N-(4-((4-((6-(1,2-difluoroethyl)pyridin-3-yl)oxy)-3-methylphenyl)amino)quinazolin-6-yl)propiolamide] | 78 | 297 | –
11 | CC#CC(=O)Nc1cc2c(Nc3ccc(Oc4ccc(C)nc4)c(C)c3)ncnc2cc1OCCN(C)C [Compound 186, N-{7-[2-(dimethylamino)ethoxy]-4-({3-methyl-4-[(6-methylpyridin-3-yl)oxy]phenyl}amino)quinazolin-6-yl}but-2-ynamide] | 16.1 | 74.5 | –

Continued by falling IC50 [1], values first:

Row | IC50 [1] [nM] | IC50 [3] [nM] | Structure (SMILES) | GI50 [2] [nM]
12 | 121 | 2550 | Cc1c(Oc2ccn3ncnc3c2)ccc(Nc2ncnc3cc(OCCN(C)C)c(NC(=O)C#CC4CC4)cc23)c1F [Compound 179, N-(4-((4-([1,2,4]triazolo[1,5-a]pyridin-7-yloxy)-2-fluoro-3-methylphenyl)amino)-7-(2-(dimethylamino)ethoxy)quinazolin-6-yl)-3-cyclopropylpropiolamide] | –
13 | 32.4 | 579 | CC#CC(=O)Nc1ccc2ncnc(Nc3ccc(Oc4ccc5c(c4)ncn5C)c(C)c3)c2c1F [Compound 213, N-[5-fluoro-4-({3-methyl-4-[(1-methyl-1,3-benzodiazol-5-yl)oxy]phenyl}amino)quinazolin-6-yl]but-2-ynamide] | 9.65
14 | 24.9 | 1220 | Cc1cc(Nc2ncnc3cc(OCCN(C)C)c(NC(=O)C#CC4(C)CC4)cc23)ccc1Oc1ccn2ncnc2c1 [Compound 190, N-{7-[2-(dimethylamino)ethoxy]-4-[(3-methyl-4-{[1,2,4]triazolo[1,5-a]pyridin-7-yloxy}phenyl)amino]quinazolin-6-yl}-3-(1-methylcyclopropyl)prop-2-ynamide] | 34.5
15 | 23.4 | 1590 | CC#CC(=O)Nc1cc2c(Nc3ccc(Oc4ccn5ncnc5c4)c(C)c3F)ncnc2cc1OCCN(C)C [Compound 180, N-(4-((4-([1,2,4]triazolo[1,5-a]pyridin-7-yloxy)-2-fluoro-3-methylphenyl)amino)-7-(2-(dimethylamino)ethoxy)quinazolin-6-yl)but-2-ynamide] | –
16 | 18.2 | 804 | CC#CC(=O)Nc1cc2c(Nc3ccc(Oc4ccn5ncnc5c4)c(C)c3)ncnc2cc1OCCNC [Compound 194, N-{4-[(3-methyl-4-{[1,2,4]triazolo[1,5-a]pyridin-7-yloxy}phenyl)amino]-7-[2-(methylamino)ethoxy]quinazolin-6-yl}but-2-ynamide] | 32
